“Also recorded” adds a separate entry of the source.
Tests used:
[1] = molecular target: T1, human RORγ hybrids of both isoforms 1 and 2 (Homo sapiens, UniProt P51449); test: Human RAR-related Orphan Receptor Gamma Reporter Assay System; assay type: cell-based; conditions: for RORγt activity in experimental testing (active / inactive): result in words
T1 sequence (P51449 259-518): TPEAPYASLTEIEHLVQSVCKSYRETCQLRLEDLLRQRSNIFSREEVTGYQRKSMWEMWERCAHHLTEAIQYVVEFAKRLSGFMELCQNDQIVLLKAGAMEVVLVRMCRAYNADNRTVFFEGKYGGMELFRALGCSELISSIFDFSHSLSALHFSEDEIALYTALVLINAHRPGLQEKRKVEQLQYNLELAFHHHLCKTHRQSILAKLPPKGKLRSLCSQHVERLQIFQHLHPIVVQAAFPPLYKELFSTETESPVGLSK

[2] = listed 15.11.2017 in the ChEMBL; cited from earlier work

SMILES	RORγt activity in experimental testing (active / inactive) [1]	IC50 [1]	log P [2]
O=C(COC(=O)c1cccc(N2C(=O)C3C4c5ccccc5C(c5ccccc54)C3C2=O)c1)c1ccccc1 (stereo not drawn) [Compound 18]	activity	–	–
CC1(c2cccc([N+](=O)[O-])c2)Nc2ccccc2C(=O)N1N=Cc1cc(Br)cc(Br)c1O (stereo not drawn) [Compound 34]	not a particularly potent inverse agonist	10 µM	–
Cc1ccc(-c2cc(C(=O)N3CCN(c4cccc(C(F)(F)F)c4)CC3)c3ccccc3n2)o1 [Compound 13]	less active	–	–
Cc1ccccc1-c1cc(C(=O)N2CCN(c3ccc([N+](=O)[O-])cc3)CC2)c2ccccc2n1 [Compound 16]	either insoluble or inactive	–	–
O=C(O)c1ccc(NC(=O)c2cccc(N3C(=O)C4C5c6ccccc6C(c6ccccc65)C4C3=O)c2)cc1 (stereo not drawn) [Compound 21]	inactive	–	–
Cc1cc(C=C2C(=O)NC(=S)N(c3cccc(Br)c3)C2=O)c(C)n1-c1ccc(S(N)(=O)=O)cc1 [Compound 2]	active	–	–
O=C(COC(=O)c1cccc(N2C(=O)C3C4c5ccccc5C(c5ccccc54)C3C2=O)c1)c1ccc(Cl)cc1 (stereo not drawn) [Compound 19]	activity	–	–
CC(C)CN(Cc1ccc(F)cc1)S(=O)(=O)c1ccc(NC2CCN(S(C)(=O)=O)CC2)nc1 [Compound 3QQ, N-(4-fluorobenzyl)-N-(2-methylpropyl)-6-{[1-(methylsulfonyl)piperidin-4-yl]amino}pyridine-3-sulfonamide]	–	–	2.3
Cc1ccc(-c2cc(C(=O)N3CCN(c4ccc(F)cc4)CC3)c3ccccc3n2)cc1 [Compound 17]	either insoluble or inactive; also recorded: inactivity	–	–
Cc1ccccc1-c1cc(C(=O)N2CCN(c3cccc(C(F)(F)F)c3)CC2)c2ccccc2n1 [Compound 12]	less active	–	–
O=C(Oc1ccc(N2C(=O)C3C4c5ccccc5C(c5ccccc54)C3C2=O)cc1)c1cccc([N+](=O)[O-])c1 (stereo not drawn) [Compound 20]	inactive	–	–

— article PMC6044741 (ACS Omega, 2018)
